# Source: patent US12540120B2, “Herbicidal compounds” (SYNGENTA CROP PROTECTION AG, priority 2019, dated 2026)
# Experiments:
# Format in all cases: in vivo
# [1] = test system: Setaria faberi (SETFA); test: B5 Pre-Emergence Efficacy—Test 2; set-up: key: 5-point scale: 5=80-100%, 4=60-79%, 3=40-59%, 2=20-39%, 1=0-19% damage; conditions: 250 g/ha, evaluated after 13 days
# Procedure: (§1) B5 Pre-Emergence Efficacy—Test 2 Seeds of a variety of test species were sown in standard soil in pots: Solanum nigrum (SOLNI), Amaranthus retoflexus (AMARE), Setaria faberi (SETFA), Echinochloa crus-galli (ECHCG), Ipomoea hederacea (IPOHE), Lolium perenne (LOLPE). After cultivation for one day (pre-emergence) under controlled conditions in a glasshouse (at 24/16° C., day/night; 14 hours light; 65% humidity), the plants were sprayed with an aqueous spray solution derived from the formulation of the technical active ingredient in acetone/water (50:50) solution containing 0.5% Tween 20 (polyoxyethelyene sorbitan monolaurate, CAS RN 9005-64-5). Compounds are applied at 250 g/ha. The test plants were then grown in a glasshouse under controlled conditions (at 24/16° C., day/night; 14 hours light; 65% humidity) and watered twice daily. After 13 days, the test is evaluated for the percentage damage caused to the plant. The biological activities are assessed on a five point scale (5=80-100%; 4=60-79%; 3=40-59%; 2=20-39%; 1=0-19%). A blank value in the table is indicative that the compound was not tested on that species.
# [2] = test system: Lolium perenne (LOLPE); test: B5 Pre-Emergence Efficacy—Test 2; set-up: key: 5-point scale: 5=80-100%, 4=60-79%, 3=40-59%, 2=20-39%, 1=0-19% damage; conditions: 250 g/ha, evaluated after 13 days
# Procedure: as §1
# [3] = test system: Ipomoea hederacea (IPOHE); test: B5 Pre-Emergence Efficacy—Test 2; set-up: key: 5-point scale: 5=80-100%, 4=60-79%, 3=40-59%, 2=20-39%, 1=0-19% damage; conditions: 250 g/ha, evaluated after 13 days
# Procedure: as §1
# [4] = test system: Echinochloa crus-galli (ECHCG); test: B5 Pre-Emergence Efficacy—Test 2; set-up: key: 5-point scale: 5=80-100%, 4=60-79%, 3=40-59%, 2=20-39%, 1=0-19% damage; conditions: 250 g/ha, evaluated after 13 days
# Procedure: as §1
# [5] = test system: Solanum nigrum (SOLNI); test: B5 Pre-Emergence Efficacy—Test 2; conditions: 250 g/ha, evaluated after 13 days
# Procedure: as §1
# [6] = test system: Amaranthus retoflexus (AMARE); test: B5 Pre-Emergence Efficacy—Test 2; conditions: 250 g/ha, evaluated after 13 days
# Procedure: as §1
# [7] = test system: Setaria faberi (SETFA); test: B2 Post-Emergence Efficacy—Test 2; conditions: post-emergence application, 250 g/ha, evaluated after 13 days (Test 2)
# Procedure: (§2) B2 Post-Emergence Efficacy—Test 2 Seeds of a variety of test species are sown in standard soil in pots:—Solanum nigrum (SOLNI), Amaranthus retoflexus (AMARE), Setaria faberi (SETFA), Echinochloa crus-galli (ECHCG), Ipomoea hederacea (IPOHE), Lolium perenne (LOLPE). After 8 days cultivation (post-emergence) under controlled conditions in a glasshouse (at 24/16° C., day/night; 14 hours light; 65% humidity), the plants are sprayed with an aqueous spray solution derived from the formulation of the technical active ingredient in acetone/water (50:50) solution containing 0.5% Tween 20 (polyoxyethylene sorbitan monolaurate, CAS RN 9005-64-5). Compounds are applied at 250 g/ha. The test plants are then grown in a glasshouse under controlled conditions in a glasshouse (at 24/16° C., day/night; 14 hours light; 65% humidity) and watered twice daily. After 13 days, the test is evaluated for the percentage damage caused to the plant. The biological activities are assessed on a five point scale (5=80-100%; 4=60-79%; 3=40-59%; 2=20-39%; 1=0-19%). A blank value in the table is indicative that the compound was not tested on that species.
# [8] = test system: Lolium perenne (LOLPE); test: B2 Post-Emergence Efficacy—Test 2; conditions: post-emergence application, 250 g/ha, evaluated after 13 days (Test 2)
# Procedure: as §2
# [9] = test system: Solanum nigrum (SOLNI); test: B2 Post-Emergence Efficacy—Test 2; conditions: post-emergence application, 250 g/ha, evaluated after 13 days (Test 2)
# Procedure: as §2
# [10] = test system: Ipomoea hederacea (IPOHE); test: B2 Post-Emergence Efficacy—Test 2; conditions: post-emergence application, 250 g/ha, evaluated after 13 days (Test 2)
# Procedure: as §2
# [11] = test system: Echinochloa crus-galli (ECHCG); test: B2 Post-Emergence Efficacy—Test 2; conditions: post-emergence application, 250 g/ha, evaluated after 13 days (Test 2)
# Procedure: as §2
# [12] = test system: Amaranthus retoflexus (AMARE); test: B2 Post-Emergence Efficacy—Test 2; conditions: post-emergence application, 250 g/ha, evaluated after 13 days (Test 2)
# Procedure: as §2
SMILES,"Control of weed species after pre-emergence application, SETFA (percentage damage, five point scale) [1]","Control of weed species after pre-emergence application, LOLPE (percentage damage, five point scale) [2]","Control of weed species after pre-emergence application, IPOHE (percentage damage, five point scale) [3]","Control of weed species after pre-emergence application, ECHCG (percentage damage, five point scale) [4]","Control of weed species after pre-emergence application, SOLNI (percentage damage, five point scale) [5]","Control of weed species after pre-emergence application, AMARE (percentage damage, five point scale) [6]","percentage damage caused to the plant, five point scale, SETFA [7]","percentage damage caused to the plant, five point scale, LOLPE [8]","percentage damage caused to the plant, five point scale, SOLNI [9]","percentage damage caused to the plant, five point scale, IPOHE [10]","percentage damage caused to the plant, five point scale, ECHCG [11]","percentage damage caused to the plant, five point scale, AMARE [12]"
Cc1nn(C)c(=O)c(-c2c(F)ccc(Cl)c2CCc2cccc(C#N)c2)c1OC(=O)C(C)C [Compound A-3.030],5 (5=80-100%),4 (4=60-79%),3 (3=40-59%),4 (4=60-79%),5 (5=80-100%),5 (5=80-100%),5 (5=80-100%),4 (4=60-79%),5 (5=80-100%),5 (5=80-100%),2 (2=20-39%),5 (5=80-100%)
"Cc1nn(C)c(=O)c(-c2c(F)ccc(Cl)c2CCc2ccc(-c3ccccc3)cc2)c1O [Compound A-1.027, 4-[3-chloro-6-fluoro-2-[2-(4-phenylphenyl)ethyl]phenyl]-5-hydroxy-2,6-dimethyl-pyridazin-3-one]",3 (3=40-59%),2 (2=20-39%),4 (4=60-79%),1 (1=0-19%),4 (4=60-79%),5 (5=80-100%),5 (5=80-100%),5 (5=80-100%),4 (4=60-79%),4 (4=60-79%),5 (5=80-100%),5 (5=80-100%)
Cc1cc(CCc2c(Cl)ccc(F)c2-c2c(O)c(C)nn(C)c2=O)ccc1N [Compound A-1.031],1 (1=0-19%),1 (1=0-19%),1 (1=0-19%),2 (2=20-39%),2 (2=20-39%),3 (3=40-59%),4 (4=60-79%),4 (4=60-79%),5 (5=80-100%),4 (4=60-79%),4 (4=60-79%),5 (5=80-100%)
Cc1nn(C)c(=O)c(-c2c(F)ccc(Cl)c2CCc2ccc(-c3cccs3)cc2)c1O [Compound A-1.384],0,0,2 (2=20-39%),0,1 (1=0-19%),2 (2=20-39%),5 (5=80-100%),4 (4=60-79%),5 (5=80-100%),5 (5=80-100%),3 (3=40-59%),5 (5=80-100%)
Cc1nn(C)c(=O)c(-c2c(F)ccc(Cl)c2CCc2cccc(C#N)c2)c1O [Compound A-1.030],5 (5=80-100%),4 (4=60-79%),0,5 (5=80-100%),5 (5=80-100%),5 (5=80-100%),4 (4=60-79%),5 (5=80-100%),5 (5=80-100%),5 (5=80-100%),4 (4=60-79%),4 (4=60-79%)
"Cc1nn(C)c(=O)c(-c2c(F)ccc(Cl)c2CCc2ccc(C#N)cc2)c1OC(=O)C(C)C [Compound A-3.036, [5-[3-Chloro-2-[2-(4-cyanophenyl)ethyl]-6-fluoro-phenyl]-1,3-dimethyl-6-oxo-pyridazin-4-yl] 2-methylpropanoate]",5 (5=80-100%),5 (5=80-100%),5 (5=80-100%),5 (5=80-100%),5 (5=80-100%),5 (5=80-100%),4 (4=60-79%),4 (4=60-79%),5 (5=80-100%),5 (5=80-100%),4 (4=60-79%),5 (5=80-100%)
Cc1nn(C)c(=O)c(-c2c(F)ccc(Cl)c2CCc2ccc(C(C)(C)C)cc2)c1O [Compound A-1.026],0,0,0,0,0,0,2 (2=20-39%),1 (1=0-19%),4 (4=60-79%),0,0,4 (4=60-79%)
Cc1nn(C)c(=O)c(-c2c(F)ccc(Cl)c2CCc2ccc(N(C)C)cc2)c1O [Compound A-1.033],2 (2=20-39%),1 (1=0-19%),1 (1=0-19%),0,1 (1=0-19%),1 (1=0-19%),5 (5=80-100%),5 (5=80-100%),5 (5=80-100%),5 (5=80-100%),4 (4=60-79%),5 (5=80-100%)
